Experimental data from patent US20080140138A1, “Inhibition of inflammatory cytokine production by stimulation of brain muscarinic receptors” (priority 2002, published 2008).

Test system: carrageenan-induced hindpaw edema
Assay: Carrageenan-induced hindpaw edema
Format: in vivo, Lewis rats
Details: CNI-1493 5 μg/rat i.c.v., 1 h before carrageenan; edema 3 h post carrageenan
Description: Method of determining CNI-1493 receptor binding. CNI-1493 was tested at a single concentration (10 μM) in a panel of receptor binding assays by NovaScreen Biosciences Corporation (Hanover, Md.). Values were expressed as the percent inhibition of specific binding, and represented the average of duplicate tubes. Method of stereotactic intracerebroventricular injections. A rat model of intracerebroventricular (i.c.v.) injections was established in order to be able to directly deliver pharmacological agents into the brain of rats. This was necessary in order to separate drug effects on peripheral inflammation that occurred through central versus peripheral mechanisms. Lewis rats were anaesthetized with urethane (1 g/kg, i.p.) and xylazine (15 mg/rat, i.m. (intramuscular)). Rats were then placed in a stereotactic head frame (Stoelting, Wood Dale, Ill., USA). The incisor bar was adjusted until the plane defined by the lambda and bregma was parallel to the base plate. For i.c.v. injections the needle of a Hamilton syringe (25 μl) was positioned stereotactically above the lateral ventricle (0.2 mm and 1.5 mm posterior to bregma, 3.2 mm below the dura.) Solutions of the drugs tested were prepared in sterile endotoxin-free water, at the specified concentrations, and a 10-μl injection/rat was administered over 2 min, 1 h prior to either carrageenan injection, or to LPS.
The tested drugs, in either the carrageenan and/or LPS experiments, were: saline control; fluoxetine hydrochloride, (also known as Prozak) (0.01 mg/100 g); muscarine (50 μg/rat, 5 μg/rat, 0.5 μg/rat, 0.05 μg/rat, 0.005 μg/rat); 4-(N-[3-chlorophenyl]carbamoyloxy)-2-butynyltrimethylammonium chloride (also known as McN-A-343) (5 μg/rat); Muscarinic Toxin-3, (also known as MT-3) from Dendroaspis angusticeps snake venom (0.37 μg/rat); nicotine (10 μg/rat); CNI-1493 (1 μg/kg, 50 μg/rat); atropine (1 μg/kg, 5 μg/rat); CNI-1493 plus atropine (1 μg/kg of each of the drugs; 50 μg/rat, 5 μg/rat respectively); naloxone hydrochloride (2 μg/rat), CNI-1493 plus naloxone (50 μg/rat+5 μg/rat respectively); and morphine (20 μg/rat).
Method of carrageenan-induced hindpaw edema. Paw edema was induced in anaesthetized rats by injection of 1% solution of 1-carrageenan (100 μl) into the plantar surface of the left hindpaw. The right hindpaw was injected with the same volume of saline alone (as control). The thickness of the carrageenan-treated and saline-treated hindpaw was measured using a caliper at 3 h post carrageenan, and the difference between paw thickness calculated as an index of inflammation (paw swelling). Method of LPS injections and TNF determination. LPS (15 mg/kg, i.v.) was injected in the tail vein 1 h after drug injection. Blood was obtained 2 h post LPS injection by paraorbital bleeding. Serum TNF concentrations were determined by an L929 bioactivity assay. Method of assessing TNF by the L929 bioactivity assay. L929 cells were suspended in Dulbecco's minimal Eagle's medium (DMEM; GibcoBRL) supplemented with fetal bovine serum (10%; Hyclone) and penicillin/streptomycin (0.5%; Sigma Chemical Co.), and plated at 2×10^4 cells per well in 96-well flat-bottomed microtiter plates. After 24 h, media were respirated and replaced with medium containing cycloheximide (10 μg/ml; Sigma Chemical Co.) and the samples to be assayed/TNF standards. Plates were incubated overnight, at which time cell viability as a function of TNF concentration was assessed by the MTT assay. Absorbance values were converted to units per milliliter by comparison with a standard curve for rat TNF.
In a third set of experiments, rats were injected by i.c.v. means with either saline (n=4), CNI-1493 (5 μg/rat, n=3), CNI-1493 plus atropine (5 μg/rat each), or atropine (5 μg/rat). Carrageenan was given to the animals 1 h later, and paw edema was determined 3 h post carrageenan. […]

**Q.** With CC(=NNC(=N)N)c1cc(NC(=O)CCCCCCCCC(=O)Nc2cc(C(C)=NNC(=N)N)cc(C(C)=NNC(=N)N)c2)cc(C(C)=NNC(=N)N)c1.Cl.Cl.Cl.Cl [CNI-1493, N,N′-bis(3,5-diacetylphenyl) decanediamide tetrakis (amidinohydrazone) tetrahydrochloride] as the compound, how does the “inhibition of carrageenan-induced paw edema” value read?
**A.** significantly inhibits
